In patent US11952330B2, “Antibiotic ammonium compounds and methods for the treatment of bacterial infections” (priority 2019, dated 2024):

Columns and labels:
S. aureus = assay: MIC by broth dilution, S. aureus; assay type: cell-based; conditions: Staphylococcus aureus; Mueller-Hinton broth, overnight 37° C.; Table 1; read-out: MIC (μg/mL) S. aureus
Experimental: (§1) The antibacterial efficacy of the ammonium compounds was assessed. Minimum inhibitory concentrations (MICs) were determined by broth dilution method. Dilutions of each compound, ranging from 1 μg/mL to 256 μg/mL (final concentrations) were prepared in Mueller-Hinton broth. Compound dilutions were added to wells of a 96-well plate, with the concentration of the compound increasing 2-fold by row. Each well contained 5×10^5 CFU/ml of target bacterium in a total volume of 100 μl. Plates were incubated overnight at 37° C. The following day, plates were evaluated for a visual change in growth to determine the MIC. The concentration value corresponding to the first row that no longer had visible bacterial growth, as evaluated by turbidity in the wells, was recorded as the MIC. MIC values were representative of at least biological duplicates, each made up of technical triplicates. The antibacterial efficacy of ammonium compounds in the presence of human plasma was assessed. Minimum inhibitory concentrations (MICs) were determined by broth dilution method. Dilutions of each compound, ranging from 1 μg/mL to 256 μg/mL (final concentrations) were prepared in Mueller-Hinton broth. For the plasma containing samples, compound dilutions were made in Mueller-Hinton broth and supplemented with 5% (final %) human plasma (esterases). Compound dilutions were added to wells of a 96-well plate, with the concentration of the compound increasing 2-fold by row. Each well contained 5×10^5 CFU/mL of target bacterium in a total volume of 100 μL. Plates were incubated overnight at 37° C. The following day, plates were evaluated for a visual change in growth to determine the MIC. The concentration value corresponding to the first row that no longer had visible bacterial growth, as evaluated by turbidity in the wells, was recorded as the MIC. MIC values were representative of at least biological duplicates, each made up of technical triplicates.

A. baumannii = assay: MIC by broth dilution, A. baumannii; assay type: cell-based; conditions: Acinetobacter baumannii; Mueller-Hinton broth, overnight 37° C.; Table 1; read-out: MIC (μg/mL) A. baumannii
Experimental: as §1

| Compound | MIC (S. aureus) [µg/mL] | MIC (A. baumannii) [µg/mL] |
| --- | --- | --- |
| CCCCCCCCOc1ccccc1C(=O)Nc1ccc(S(=O)(=O)NCC[N+](CC)(CC)CCC)cc1.[Br-] [Compound 82, N,N-Diethyl-N-(2-((4-(2-(octyloxy)benzamido)phenyl)sulfonamido)ethyl)propan-1-aminium bromide] | 3 to 30 | 3 to 30 |
| CCCCOc1ccccc1C(=O)Nc1ccc(C(=O)OCC[N+](C)(CC)CC)cc1.[Br-] [Compound 19, 2-((4-(2-Butoxybenzamido)benzoyl)oxy)-N,N-diethyl-N-methylethan-1-aminium bromide] | > 30 | > 30 |
| CCCCCCCCOc1ccc(F)cc1C(=O)Nc1ccc(C(=O)OCC[N+](C)(CC)CC)cc1.[Br-] [Compound 86, N,N-Diethyl-2-((4-(5-fluoro-2-(octyloxy)benzamido)benzoyl)oxy)-N-methylethan-1-aminium bromide] | < 3 | 3 to 30 |
| CCCCCCCCOc1ccccc1C(=O)Nc1ccc(S(=O)(=O)NCC[N+](C)(CC)CC)cc1.[Br-] [Compound 78, N,N-Diethyl-N-methyl-2-((4-(2-(octyloxy)benzamido)phenyl)sulfonamido)ethan-1-aminium bromide] | 3 to 30 | 3 to 30 |
| CCCCCCCOc1ccccc1C(=O)Nc1ccc(S(=O)(=O)NCC[N+](CC)(CC)CCC)cc1.[Br-] [Compound 83, N,N-Diethyl-N-(2-((4-(2-(heptyloxy)benzamido)phenyl)sulfonamido)ethyl)propan-1-aminium bromide] | 3 to 30 | > 30 |
| CCCCCCCCOc1ccccc1C(=O)Nc1ccc(C(=O)OCC[N+](C)(CC)CC)cc1F.[Br-] [Compound 91, N,N-Diethyl-2-((3-fluoro-4-(2-(octyloxy)benzamido)benzoyl)oxy)-N-methylethan-1-aminium bromide] | 3 to 30 | > 30 |
| CCCCCCCCOc1ccccc1C(=O)Nc1ccc(C(=O)NC2CC[N+](CCC)(CCC)CC2)cc1.[Br-] [Compound 75, 4-(4-(2-(Octyloxy)benzamido)benzamido)-1,1-dipropylpiperidin-1-ium bromide] | 3 to 30 | > 30 |
| CCCCCCCCOc1cccc(C(=O)Nc2ccc(C(=O)OCC[N+](C)(CC)CC)cc2)c1.[Br-] [Compound 32, N,N-Diethyl-N-methyl-2-((4-(3-(octyloxy)benzamido)benzoyl)oxy)ethan-1-aminium bromide] | 3 to 30 | > 30 |
| CCCCCCCCOc1ccccc1C(=O)Nc1ccc(C(=O)OCC[N+]2(C)CCCC2)cc1.[Br-] [Compound 52, 1-Methyl-1-(2-((4-(2-(octyloxy)benzamido)benzoyl)oxy)ethyl)pyrrolidin-1-ium bromide] | 3 to 30 | > 30 |
| CCCCCCCCOc1ccccc1C(=O)Nc1ccc(C(=O)OCC[N+](CC)(CC)CCCCc2ccccc2)cc1.[Br-] [Compound 44, N,N-Diethyl-N-(2-((4-(2-(octyloxy)benzamido)benzoyl)oxy)ethyl)-4-phenylbutan-1-aminium bromide] | < 3 | 3 to 30 |
| CCCCCCCCOc1ccccc1C(=O)Nc1ccc(C(=O)OCC[N+](CC)(CC)Cc2ccc(C(=O)OC)cc2)cc1.[Br-] [Compound 51, N,N-Diethyl-N-(4-(methoxycarbonyl)benzyl)-2-((4-(2-(octyloxy)benzamido)-benzoyl)oxy)ethan-1-aminium bromide] | < 3 | > 30 |
| CCCCCCCOc1ccccc1C(=O)Nc1ccc(C(=O)NC2CC[N+](C)(CCC)CC2)cc1.[Br-] (stereo not shown) [Compound 73, 4-(4-(2-(Heptyloxy)benzamido)benzamido)-1-methyl-1-propylpiperidin-1-ium bromide] | 3 to 30 | > 30 |
| CC[N+](C)(CC)CCOC(=O)c1ccc(NC(=O)c2ccccc2OC2CCC(C)CC2)cc1.[Br-] (stereo not shown) [Compound 98, N,N-Diethyl-N-methyl-2-((4-(2-(((1s,4s)-4-methylcyclohexyl)oxy)benzamido)-benzoyl)oxy)ethan-1-aminium bromide] | > 30 | > 30 |
| CCCCCCCCOc1ccccc1C(=O)Nc1ccc(C(=O)OCC[N+]2(CCC)CCCC2)cc1.[Br-] [Compound 56, 1-(2-((4-(2-(Octyloxy)benzamido)benzoyl)oxy)ethyl)-1-propylpyrrolidin-1-ium bromide] | < 3 | 3 to 30 |
| CCCCCCCCOc1ccccc1C(=O)Nc1ccccc1C(=O)OCC[N+](C)(CC)CC.[Br-] [Compound 13, N,N-Diethyl-N-methyl-2-((2-(2-(octyloxy)benzamido)benzoyl)oxy)ethan-1-aminium bromide] | 3 to 30 | > 30 |
| CCCCCCCCOc1ccccc1C(=O)Nc1ccc(C(=O)OCC[N+](CC)(CC)Cc2cccc(C(F)(F)F)c2)cc1.[Br-] [Compound 40, N,N-Diethyl-2-((4-(2-(octyloxy)benzamido)benzoyl)oxy)-N-(3-(trifluoromethyl)-benzyl)ethan-1-aminium bromide] | < 3 | > 30 |
| CCCCCCCOc1ccccc1C(=O)Nc1ccc(S(=O)(=O)NCC[N+](C)(CC)CC)cc1.[Br-] [Compound 79, N,N-Diethyl-2-((4-(2-(heptyloxy)benzamido)phenyl)sulfonamido)-N-methylethan-1-aminium bromide] | 3 to 30 | > 30 |

More lines, now with the values ahead:

| MIC (S. aureus) [µg/mL] | MIC (A. baumannii) [µg/mL] | Compound |
| --- | --- | --- |
| < 3 | 3 to 30 | CCCCCCCCOc1ccccc1C(=O)Nc1ccc(C(=O)OCC[N+](CC)(CC)CCCC)cc1.[Br-] [Compound 34, N,N-Diethyl-N-(2-((4-(2-(octyloxy)benzamido)benzoyl)oxy)ethyl)butan-1-aminium bromide] |
| 3 to 30 | > 30 | CCCCCCCCCCCOc1ccccc1C(=O)Nc1ccc(C(=O)OCC[N+](C)(CC)CC)cc1.[Br-] [Compound 25, N,N-Diethyl-N-methyl-2-((4-(2-(undecyloxy)benzamido)benzoyl)oxy)ethan-1-aminium bromide] |
| 3 to 30 | 3 to 30 | CCCCCCCCOc1ccccc1C(=O)Nc1ccc(C(=O)OCC[N+](C)(CC)CC)cc1.[Br-] [Compound 10, N,N-diethyl-N-methyl-2-((4-(2-(octyloxy)benzamido)benzoyl)oxy)ethan-1-aminium bromide, reference compound] |
| 3 to 30 | > 30 | CCCCCCCCC[N+](CC)(CC)CCOC(=O)c1ccc(NC(=O)c2ccccc2OCCCCCCCC)cc1.[Br-] [Compound 30, N,N-Diethyl-N-(2-((4-(2-(octyloxy)benzamido)benzoyl)oxy)ethyl)nonan-1-aminium bromide] |
| 3 to 30 | > 30 | CCCCCOc1ccccc1C(=O)Nc1ccc(C(=O)OCC[N+](CC)(CC)CCCCC)cc1.[Br-] [Compound 65, N,N-Diethyl-N-(2-((4-(2-(pentyloxy)benzamido)benzoyl)oxy)ethyl)pentan-1-aminium bromide] |
| < 3 | 3 to 30 | CCCCCCCCOc1ccccc1C(=O)Nc1ccc(C(=O)OCC[N+](CC)(CC)Cc2cccc(F)c2F)cc1.[Br-] [Compound 43, N,N-Diethyl-N-(2,3-difluorobenzyl)-2-((4-(2-(octyloxy)benzamido)benzoyl)oxy)-ethan-1-aminium bromide] |
| < 3 | > 30 | CCCCCCCCCCC[N+](CC)(CC)CCOC(=O)c1ccc(NC(=O)c2ccccc2OCCCCCCCC)cc1.[Br-] [Compound 49, N,N-Diethyl-N-(2-((4-(2-(octyloxy)benzamido)benzoyl)oxy)ethyl)undecan-1-aminium bromide] |
| < 3 | 3 to 30 | CCCCCCCCOc1ccccc1C(=O)Nc1ccc(C(=O)OCC[N+](CC)(CC)CCCCCCC)cc1.[Br-] [Compound 37, N,N-Diethyl-N-(2-((4-(2-(octyloxy)benzamido)benzoyl)oxy)ethyl)heptan-1-aminium bromide] |
| < 3 | 3 to 30 | CCCCCCCCOc1ccccc1C(=O)Nc1ccc(C(=O)OCC[N+](CC)(CC)CCC)cc1.[Br-] [Compound 33, N,N-Diethyl-N-(2-((4-(2-(octyloxy)benzamido)benzoyl)oxy)ethyl)propan-1-aminium bromide] |
